Data from patent publication US12325744B2, “Methods for reducing post-operative cognitive dysfunction (POCD)” (The Kennedy Trust for Rheumatology Research, priority 2010, dated 2025).
“Also recorded” adds a separate entry of the source.

Tests used:
microglia = test: Hippocampal microglia anti-CD11b immunohistochemistry grading (0-3) after tibial surgery; type: in vivo; conditions: wild type mice, 1 day after surgery
From the text: Immunohistochemistry. Fixed brains were collected for immunohistochemical DAB staining for CD11 b and scored as previously described^21. (For further details please refer to supplemental methods).
Under terminal anesthesia with pentobarbital, mice were euthanized and perfused transcardially with ice-cold heparinized 0.1M phosphate buffer solution (PBS) followed by 4% paraformaldehyde in 0.1M PBS at pH 7.4 (VWR International, Lutterworth, Leicester, UK). The brains were harvested and post-fixed in 4% paraformaldehyde in 0.1M PBS at 4° C. and cryoprotected in 0.1M PBS solutions containing 15% sucrose for 24 hours (VWR International, Lutterworth, Leicester, UK) and then 30% sucrose for a further 48 hours. […]
Immunohistochemistry: Fixed brains were collected for immunohistochemical DAB staining for microglia activation using CD11 b and scored as previously described (13).
Methods: Adult C56BL/6J male mice were randomly assigned into groups that were: 1) untreated (naïve) animals; 2) tibial fracture under GA and analgesia; 3) 24 h following tibial surgery, i.p. injection of LPS (1 mg/kg) 4) LPS injection only. Separate cohorts of mice per group were assessed for inflammatory markers (plasma cytokines and microglial activation), or hippocampal-dependent memory using trace fear conditioning (TFC).

IL-1β = test: Plasma IL-1β by ELISA after LPS injection; type: in vivo, mice; conditions: LPS 1 mg/kg i.p., IL-1Ra 100 mg/kg s.c. immediately before LPS
Procedure: (§1) Treatment. LPS derived from Escherichia Coli endotoxin ([…], InvivoGen, USA, 1 mg/kg) was dissolved in normal saline and injected intraperitoneally. IL-1Ra (Amgen, Anakinra 100 mg/kg, Nederlands) was given subcutaneously immediately before LPS administration. Dose response curve from LPS or IL-1Ra was obtained from our pilot studies to provoke or to suppress moderate degree of microglia activation respectively. Control animals were injected with equivalent volumes (0.1 ml) of saline. Mice from each treatment group were randomly assigned for assessment of either cytokine response or cognitive behavior, in order to obviate possible confounding effects of behavioral testing on inflammatory markers.
(§2) Plasma cytokine measurement. Blood was sampled transcardially after thoracotomy under terminal anesthesia 30 minutes, 2, 6, 12 hours and 1, 3, 7 days after experiments in the different cohorts and centrifuged at 3,600 rpm for 7 minutes at 4° C. Blood samples taken from animals without any interventions severed as controls. Plasma samples were stored at −20° C. for further analysis. Plasma cytokine and HMGB-1 were measured using commercially available ELISA kits from Biosource, CA and Shino-test Corporation, Japan, respectively. The sensitivities of the assays were <3 pg/ml for TNFα, <7 pg/ml for IL-1β, <3 pg/ml for IL-6 and 1 ng/ml for HMGB-1.

IL-6 = test: Plasma IL-6 by ELISA after LPS injection; type: in vivo, mice; conditions: LPS 1 mg/kg i.p., IL-1Ra 100 mg/kg s.c. immediately before LPS
Procedure: as §1, §2

HMGB-1 = test: Plasma HMGB-1 by ELISA after LPS injection; type: in vivo, mice; conditions: LPS 1 mg/kg i.p.; IL-1Ra 100 mg/kg s.c. immediately before LPS
Procedure: as §1, §2

## IL-1Ra: IL-1 receptor antagonist (Amgen, Anakinra)
microglia
  Reactive microgliosis in hippocampus (CD11b grading) after surgery, effect of treatment: surgery did not increase hippocampal microgliosis; also recorded: surgery did not activate microglia if IL-1Ra was given pre-operatively
IL-1β; 6 hours
  Plasma IL-1β at 6 hours after LPS with IL-1Ra: 32.7 ± 5.45 pg/mL
IL-1β; 24 hours
  Plasma IL-1β at 24 hours after LPS with IL-1Ra: 6.2 ± 1.03 pg/mL
IL-6; 6 hours
  Plasma IL-6 at 6 hours after LPS with IL-1Ra: 91.02 ± 15.17 pg/mL
IL-6; 24 hours
  Plasma IL-6 at 24 hours after LPS with IL-1Ra: 14.05 ± 2.34 pg/mL
HMGB-1
  Plasma HMGB-1 after LPS, effect of IL-1Ra: had no effects on HMGB-1 release in plasma; also recorded: had no effects on HMGB-1 levels
